# Literature values, collected in patent US8754055B2, “Methods, compositions, and kits for collecting and detecting oligonucleotides” (The Invention Science Fund I, LLC, priority 2008, dated 2014).
# Like-named read-outs stand apart in the source and are kept apart here.
# Legend:
# [1] = 40, 8, and 1.6 μg injections once daily over 35 days
# [2] = in humans
# RNase A = molecular target: T1, RNase A (Bos taurus, UniProt P61823); conditions: RNAse A catalysis, read-out: inhibition constant (Ki)
# T1 sequence (P61823 27-150): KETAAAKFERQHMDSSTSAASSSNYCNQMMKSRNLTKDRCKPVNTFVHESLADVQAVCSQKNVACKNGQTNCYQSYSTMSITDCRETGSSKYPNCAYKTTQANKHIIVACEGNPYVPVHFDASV
compound,measurement,setting,value
Nc1ccc(N=Nc2ccc(-c3ccc(O)cc3)cc2)c2ccc(S(=O)(=O)O)cc12 [8-amino-5-(4′-hydroxylbiphenyl-4-ylazo)naphthalene-2-sulfonate],overt toxicity,[1],without overt toxicity
Etanercept,half-life,[2],70 h
oligo(vinylsulfonic acid),Ki,RNase A; 0 mM sodium chloride (lower end of salt-dependent range),~0.01 nM
same,Ki,RNase A; 100 mM sodium chloride (upper end of salt-dependent range),~120 nM
